Measurements from article PMC9506414, “Novel 2,6,9-Trisubstituted Purines as Potent CDK Inhibitors Alleviating Trastuzumab-Resistance of HER2-Positive Breast Cancers” (Pharmaceuticals, 2022).
Where two headings read alike, the source gives them in different places.

Assays:
[1] = system: HCC1954 cells; experiment: Antiproliferation assay (Cell-titer Glo, 72 h); type: cell-based; conditions: Homo sapiens, 72 h, means and standard deviations from three independent assays, read-out: HCC1954 (GI50/μM)
Method: (§1) Breast-cancer cell lines (SK-Br3, HCC-1954) were purchased from Korea Cell Line Bank (Seoul, Korea) and were cultured in RPMI medium supplemented with 10% FBS and penicillin/streptomycin (Welgene, Seoul, Korea). All cell lines were maintained at 37 °C in a cell incubator in the presence of 5% CO2.
(§2) Breast-cancer cells in culture media (100 μL volume/well, 5000 SK-Br3 cells/well, 1000 HCC-1954 cells/well) were seeded in tissue culture-treated 96-well plates, and incubated at a cell incubator for 24 h. Serially diluted compounds (3-fold, 10 point from 10 mM, duplicated) were pre-plated and 500 nL of compound solutions were pin-transferred to the cells in the assay plates using pintool system (JANUS liquid handler, PerkinElmer, Waltham, MA, USA) and incubated at a cell incubator for 72 h. Cell-titer Glo^TM reagent (50 μL, Promega Corp., Madison, WI, USA) was added to each well, and the luminescence signal was read using an Envision^TM plate reader (PerkinElmer, Waltham, MA, USA). The titration curve fitting and IC50 values were generated using Prism 7.0 s/w (GraphPad, San Diego, CA, USA).

[2] = system: SK-Br3 cells; experiment: Antiproliferation assay (Cell-titer Glo, 72 h); type: cell-based; conditions: Homo sapiens, SK-BR-3; 72 h; means and standard deviations from three independent assays; read-out: SK-Br3 (GI50/μM)
Method: as §1, §2

[3] = target: CDK12/CyclinK (Homo sapiens, UniProt Q9NYV4); experiment: In vitro CDK12/cyclinK kinase assay; type: biochemical; set-up: purchased Reaction Biology Corp. (CRO that ran the assay)
Sequence of CDK12/CyclinK (Q9NYV4 whole entry): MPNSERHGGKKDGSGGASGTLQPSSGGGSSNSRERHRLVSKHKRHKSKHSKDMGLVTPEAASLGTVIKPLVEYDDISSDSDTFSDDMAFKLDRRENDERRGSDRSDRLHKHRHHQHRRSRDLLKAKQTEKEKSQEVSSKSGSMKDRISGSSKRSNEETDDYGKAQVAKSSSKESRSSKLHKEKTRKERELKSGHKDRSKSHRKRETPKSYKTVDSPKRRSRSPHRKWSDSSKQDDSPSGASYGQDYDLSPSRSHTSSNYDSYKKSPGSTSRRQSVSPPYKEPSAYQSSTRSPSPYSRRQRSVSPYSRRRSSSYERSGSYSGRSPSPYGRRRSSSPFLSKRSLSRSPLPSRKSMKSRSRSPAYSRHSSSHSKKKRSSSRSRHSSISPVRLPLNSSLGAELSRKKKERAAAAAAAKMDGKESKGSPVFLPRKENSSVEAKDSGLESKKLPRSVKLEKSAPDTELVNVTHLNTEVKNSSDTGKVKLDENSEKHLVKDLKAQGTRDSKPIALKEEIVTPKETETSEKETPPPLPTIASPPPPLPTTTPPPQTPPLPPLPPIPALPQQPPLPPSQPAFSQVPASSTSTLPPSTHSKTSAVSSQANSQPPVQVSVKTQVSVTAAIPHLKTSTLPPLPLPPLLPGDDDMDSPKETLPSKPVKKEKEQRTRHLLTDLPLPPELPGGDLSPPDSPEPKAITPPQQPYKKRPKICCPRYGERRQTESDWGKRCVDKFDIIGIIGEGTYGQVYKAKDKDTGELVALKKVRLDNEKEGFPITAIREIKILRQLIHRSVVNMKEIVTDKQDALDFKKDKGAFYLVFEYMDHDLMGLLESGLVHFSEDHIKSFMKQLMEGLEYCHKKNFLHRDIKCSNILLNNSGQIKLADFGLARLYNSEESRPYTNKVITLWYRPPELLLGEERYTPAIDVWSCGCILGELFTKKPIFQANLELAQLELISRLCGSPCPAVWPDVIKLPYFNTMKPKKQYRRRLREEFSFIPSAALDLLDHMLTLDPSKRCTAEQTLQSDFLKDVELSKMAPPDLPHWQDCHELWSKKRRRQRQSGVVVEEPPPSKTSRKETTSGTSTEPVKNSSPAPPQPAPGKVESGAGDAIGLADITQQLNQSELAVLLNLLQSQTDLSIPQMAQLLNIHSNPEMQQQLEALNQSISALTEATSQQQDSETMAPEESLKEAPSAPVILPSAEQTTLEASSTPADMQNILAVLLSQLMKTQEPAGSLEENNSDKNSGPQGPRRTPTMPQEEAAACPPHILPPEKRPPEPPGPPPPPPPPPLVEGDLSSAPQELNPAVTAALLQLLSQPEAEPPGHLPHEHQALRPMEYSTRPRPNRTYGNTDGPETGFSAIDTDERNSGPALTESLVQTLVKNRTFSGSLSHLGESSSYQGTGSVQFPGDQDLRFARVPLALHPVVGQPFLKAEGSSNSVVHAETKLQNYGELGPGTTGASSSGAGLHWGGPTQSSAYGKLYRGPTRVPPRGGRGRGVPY
Sequence of CDK12/CyclinK (O75909 whole entry partner): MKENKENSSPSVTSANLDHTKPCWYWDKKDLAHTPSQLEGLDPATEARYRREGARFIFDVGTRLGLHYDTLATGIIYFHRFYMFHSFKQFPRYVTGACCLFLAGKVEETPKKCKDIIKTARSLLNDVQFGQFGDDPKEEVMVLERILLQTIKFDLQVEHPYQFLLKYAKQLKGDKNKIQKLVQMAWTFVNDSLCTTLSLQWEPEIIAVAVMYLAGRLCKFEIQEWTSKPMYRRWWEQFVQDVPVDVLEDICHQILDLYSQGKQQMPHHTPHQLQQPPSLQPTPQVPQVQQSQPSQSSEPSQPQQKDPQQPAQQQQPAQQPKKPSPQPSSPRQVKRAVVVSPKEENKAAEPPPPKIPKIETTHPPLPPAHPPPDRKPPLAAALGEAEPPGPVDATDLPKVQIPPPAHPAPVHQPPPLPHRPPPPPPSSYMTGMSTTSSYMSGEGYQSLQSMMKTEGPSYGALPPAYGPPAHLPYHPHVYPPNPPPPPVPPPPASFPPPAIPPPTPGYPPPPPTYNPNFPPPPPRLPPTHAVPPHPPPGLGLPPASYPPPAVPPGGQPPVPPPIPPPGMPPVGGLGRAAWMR
Method: In vitro CDK12/cyclinK assays for all compounds and in vitro kinome-wide inhibition profiling of 30d at 10 μM were performed by a CRO company (Reaction Biology Corp., San Diego, CA, USA).

[4] = Tables 1-4, read-out: CDK12/CyclinK (IC50/μM)

| GI50 [1] [µM] | GI50 [2] [µM] | IC50 ([3]; Table 5, means and standard deviations from three independent assays, read-out: CDK12/CyclinK (IC50/μM)) [µM] | IC50 [3, 4] [µM] | IC50 ([3]; read-out: CDK12/cyclinK IC50) [µM] | Structure (SMILES) |
| --- | --- | --- | --- | --- | --- |
| 0.069 ± 0.006 | 0.094 ± 0.012 | 0.0086 ± 0.0017 | – | – | CC(C)n1cnc2c(NCc3nc4ccc(F)c(F)c4[nH]3)nc(N3CCCC[C@H]3CCO)nc21 [Compound 2, reference compound] |
| 13.6 ± 1.16 | 24.6 ± 4.99 | – | 1.11 | – | Cc1ccc(-c2ccc(CNc3nc(-c4cccnc4)nc4c3ncn4C(C)C)nc2)cn1 [Compound 17c, 9-Isopropyl-N-((6′-methyl-[3,3′-bipyridin]-6-yl)methyl)-2-(pyridin-3-yl)-9H-purin-6-amine] |
| 0.247 ± 0.03 | 0.41 ± 0.034 | – | 0.221 | – | CC(C)n1cnc2c(NCc3ccc(-c4cccnc4)nc3)nc(-c3cccnc3)nc21 [Compound 17f, N-([2,3′-Bipyridin]-5-ylmethyl)-9-isopropyl-2-(pyridin-3-yl)-9H-purin-6-amine] |
| 0.494 ± 0.048 | 0.804 ± 0.095 | – | 0.153 | – | CC(C)n1cnc2c(NCc3ccc(-c4ccncc4)nc3)nc(-c3cccnc3)nc21 [Compound 17g, N-([2,4′-Bipyridin]-5-ylmethyl)-9-isopropyl-2-(pyridin-3-yl)-9H-purin-6-amine] |
| 1.12 ± 0.26 | 1.69 ± 0.243 | – | 0.623 | – | CC(C)n1cnc2c(NCc3ccc(-c4cccnc4)nc3)nc(-c3ccccc3)nc21 [Compound 18a, N-([2,3′-Bipyridin]-5-ylmethyl)-9-isopropyl-2-phenyl-9H-purin-6-amine] |
| 1.14 ± 0.304 | 1.62 ± 0.248 | – | 0.504 | – | CC(C)n1cnc2c(NCc3ccc(-c4cccnc4)nc3)nc(-c3cccc(C(N)=O)c3)nc21 [Compound 18b, 3-(6-(([2,3′-Bipyridin]-5-ylmethyl)amino)-9-isopropyl-9H-purin-2-yl)benzamide] |
| 3.14 ± 0.201 | 3.71 ± 0.45 | – | 0.484 | – | CC(C)n1cnc2c(NCc3ccc(-c4cccnc4)nc3)nc(-c3ccc(C(N)=O)cc3)nc21 [Compound 18c, 4-(6-(([2,3′-Bipyridin]-5-ylmethyl)amino)-9-isopropyl-9H-purin-2-yl)benzamide] |
| 1.35 ± 0.243 | 1.5 ± 0.112 | – | 0.155 | – | CC(C)n1cnc2c(NCc3ccc(-c4cccnc4)nc3)nc(-c3ccc4[nH]ccc4c3)nc21 [Compound 18d, N-([2,3′-Bipyridin]-5-ylmethyl)-2-(1H-indol-5-yl)-9-isopropyl-9H-purin-6-amine] |
| 0.399 ± 0.051 | 0.608 ± 0.115 | – | 0.179 | – | CC(C)n1cnc2c(NCc3ccc(-c4cccnc4)nc3)nc(-c3ccc4cn[nH]c4c3)nc21 [Compound 18e, N-([2,3′-Bipyridin]-5-ylmethyl)-2-(1H-indazol-6-yl)-9-isopropyl-9H-purin-6-amine] |
| 1.86 ± 0.148 | 2.58 ± 0.167 | – | 0.104 | – | CC(C)n1cnc2c(NCc3ccc(-c4cccnc4)nc3)nc(-c3ccc4[nH]ncc4c3)nc21 [Compound 18f, N-([2,3′-Bipyridin]-5-ylmethyl)-2-(1H-indazol-5-yl)-9-isopropyl-9H-purin-6-amine] |
| 4.23 ± 0.214 | 3.71 ± 0.557 | – | 0.486 | – | CC(C)n1cnc2c(NCc3ccc(-c4cccnc4)nc3)nc(-c3cnc4ccccc4c3)nc21 [Compound 18g, N-([2,3′-Bipyridin]-5-ylmethyl)-9-isopropyl-2-(quinolin-3-yl)-9H-purin-6-amine] |
| 0.942 ± 0.125 | 1.27 ± 0.33 | – | 0.09 | – | Cc1ccc(-c2nc(NCc3ccc(-c4cccnc4)nc3)c3ncn(C(C)C)c3n2)cn1 [Compound 18h, N-([2,3′-Bipyridin]-5-ylmethyl)-9-isopropyl-2-(6-methylpyridin-3-yl)-9H-purin-6-amine] |
| 0.278 ± 0.007 | 0.376 ± 0.067 | – | 0.065 | < 0.1 | CC(C)n1cnc2c(NCc3ccc(-c4cccnc4)nc3)nc(-c3ccc(N)nc3)nc21 [Compound 18i, N-([2,3′-Bipyridin]-5-ylmethyl)-2-(6-aminopyridin-3-yl)-9-isopropyl-9H-purin-6-amine] |
| 0.354 ± 0.06 | 0.71 ± 0.024 | – | 0.094 | < 0.1 | CC(C)n1cnc2c(NCc3ccc(-c4cccnc4)nc3)nc(-c3ccnc(N)c3)nc21 [Compound 18j, N-([2,3′-Bipyridin]-5-ylmethyl)-2-(2-aminopyridin-4-yl)-9-isopropyl-9H-purin-6-amine] |
| 0.31 ± 0.041 | 0.318 ± 0.149 | – | 0.051 | < 0.1 | CC(C)n1cnc2c(NCc3ccc(-c4cccnc4)nc3)nc(-c3cncnc3)nc21 [Compound 18k, N-([2,3′-Bipyridin]-5-ylmethyl)-9-isopropyl-2-(pyrimidin-5-yl)-9H-purin-6-amine] |
| 0.162 ± 0.011 | 0.242 ± 0.042 | – | 0.087 | < 0.1 | CC(C)n1cnc2c(NCc3ccc(-c4cccnc4)nc3)nc(-c3cnc(N)nc3)nc21 [Compound 18l, N-([2,3′-Bipyridin]-5-ylmethyl)-2-(2-aminopyrimidin-5-yl)-9-isopropyl-9H-purin-6-amine] |
| 1.13 ± 0.05 | 1.72 ± 0.336 | – | 0.501 | – | CC(C)n1cnc2c(NCc3ccc(-c4cccnc4)nc3)nc(-c3ccn[nH]3)nc21 [Compound 18m, N-([2,3′-Bipyridin]-5-ylmethyl)-9-isopropyl-2-(1H-pyrazol-5-yl)-9H-purin-6-amine] |
| 1.17 ± 0.027 | 1.99 ± 0.12 | – | 1.43 | – | CC(C)n1cnc2c(NCc3ccc(-c4cccnc4)nc3)nc(-c3cn[nH]c3)nc21 [Compound 18n, N-([2,3′-Bipyridin]-5-ylmethyl)-9-isopropyl-2-(1H-pyrazol-4-yl)-9H-purin-6-amine] |
| 2.63 ± 0.448 | 2.61 ± 0.899 | – | 0.619 | – | CC(C)n1cnc2c(NCc3ccc(-c4cccnc4)nc3)nc(-c3ccccc3N)nc21 [Compound 19a, N-([2,3′-Bipyridin]-5-ylmethyl)-2-(2-aminophenyl)-9-isopropyl-9H-purin-6-amine] |
| 0.341 ± 0.059 | 0.614 ± 0.055 | – | 0.17 | – | CC(C)n1cnc2c(NCc3ccc(-c4cccnc4)nc3)nc(-c3cccc(N)c3)nc21 [Compound 19b, N-([2,3′-Bipyridin]-5-ylmethyl)-2-(3-aminophenyl)-9-isopropyl-9H-purin-6-amine] |
| 0.497 ± 0.088 | 0.795 ± 0.063 | – | 0.15 | – | CC(C)n1cnc2c(NCc3ccc(-c4cccnc4)nc3)nc(-c3ccc(N)cc3)nc21 [Compound 19c, N-([2,3′-Bipyridin]-5-ylmethyl)-2-(4-aminophenyl)-9-isopropyl-9H-purin-6-amine] |
| 1.56 ± 0.116 | 2.3 ± 0.318 | – | 0.799 | – | CC(C)n1cnc2c(NCc3ccc(-c4cccnc4)nc3)nc(-c3ccccc3NCCO)nc21 [Compound 20a, 2-((2-(6-(([2,3′-Bipyridin]-5-ylmethyl)amino)-9-isopropyl-9H-purin-2-yl)phenyl)amino)ethan-1-ol] |
| 6.05 ± 0.351 | 11.2 ± 1.12 | – | 3.01 | – | CC(C)n1cnc2c(NCc3ccc(-c4cccnc4)nc3)nc(-c3ccccc3NCCCO)nc21 [Compound 20b, 3-((2-(6-(([2,3′-Bipyridin]-5-ylmethyl)amino)-9-isopropyl-9H-purin-2-yl)phenyl)amino)propan-1-ol] |
| 0.502 ± 0.025 | 0.732 ± 0.177 | – | 0.257 | – | CC(C)n1cnc2c(NCc3ccc(-c4cccnc4)nc3)nc(-c3cccc(NCCCO)c3)nc21 [Compound 20c, 3-((3-(6-(([2,3′-Bipyridin]-5-ylmethyl)amino)-9-isopropyl-9H-purin-2-yl)phenyl)amino)propan-1-ol] |
| 0.907 ± 0.068 | 1.09 ± 0.127 | – | 0.499 | – | CC(C)n1cnc2c(NCc3ccc(-c4cccnc4)nc3)nc(-c3ccc(NCCCO)cc3)nc21 [Compound 20d, 3-((4-(6-(([2,3′-Bipyridin]-5-ylmethyl)amino)-9-isopropyl-9H-purin-2-yl)phenyl)amino)propan-1-ol] |
| 1.33 ± 0.393 | 1.7 ± 0.165 | – | 0.147 | – | CC(C)n1cnc2c(NCc3ccc(-c4cccnc4)nc3)nc(-c3ccc(F)nc3)nc21 [Compound 21a, N-([2,3′-Bipyridin]-5-ylmethyl)-2-(6-fluoropyridin-3-yl)-9-isopropyl-9H-purin-6-amine] |
| 1.27 ± 0.021 | 1.68 ± 0.267 | – | 0.164 | – | CC(C)n1cnc2c(NCc3ccc(-c4cccnc4)nc3)nc(-c3ccnc(F)c3)nc21 [Compound 21b, N-([2,3′-Bipyridin]-5-ylmethyl)-2-(2-fluoropyridin-4-yl)-9-isopropyl-9H-purin-6-amine] |
| 44.4 ± 2.46 | > 100 | – | – | – | c1cncc(-c2ccc(CNc3nc(-c4cccnc4)nc4c3ncn4C3CCOCC3)cn2)c1 [Compound 28c, N-([2,3′-Bipyridin]-5-ylmethyl)-2-(pyridin-3-yl)-9-(tetrahydro-2H-pyran-4-yl)-9H-purin-6-amine] |
| 0.083 ± 0.011 | 0.101 ± 0.014 | – | – | – | CC[C@H](CO)Nc1nc(NCc2ccc(-c3ccccn3)cc2)c2ncn(C(C)C)c2n1 [R-CR8 (9), reference compound] |
